From the supplement of paper PMC11003180

Tests used:
Experiment in all cases: drug sensitivity score (DSS) from 5-dose viability curve (DSS (area-based score, 0 = no response)); higher = more sensitive (stronger viability inhibition); extreme values may be limits of the assay
[1] = test system: MDCK wild-type - doxycycline; conditions: doxycycline: none; 72 h
Outline: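 Drug sensitivity scores came from Breeze pipeline dose-response fits of CellTiter-Glo luminescence, scaled per plate between vehicle and positive controls. The assay used parental MDCK cells without doxycycline at 2000 cells/well, exposed for 72 h to 528 oncology drugs at five doses (1-10,000 nM).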

[2] = test system: MDCK p60AmotL2-inducible + doxycycline (p60AmotL2 expressing); conditions: doxycycline: 10 ng/mL; 72 h
Outline: (§1)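 Parental MDCK cells and MDCK cells with doxycycline-inducible p60AmotL2, both given doxycycline at 10 ng/mL in the medium before plating, were dispensed at 2000 cells/well onto pre-spotted 384-well plates. The plates held an oncology library of 528 drugs at five doses (1-10,000 nM) and were incubated 72 h at 37 °C. Viability was read as CellTiter-Glo luminescence and scaled per plate between vehicle and positive controls. Drug sensitivity scores came from dose-response curve fits in the Breeze pipeline.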

[3] = test system: MDCK wild-type + doxycycline; conditions: doxycycline: 10 ng/mL; 72 h
Outline: as §1

SMILES	drug sensitivity score [1]	drug sensitivity score [2]	drug sensitivity score [3]
N#Cc1ccc(COC[C@H]2O[C@@H](n3c(NCc4ccc(Cl)c(Cl)c4)nc4c(N)ncnc43)[C@H](O)[C@@H]2O)cc1	0	0	0
Cc1cn(-c2cc(NC(=O)c3ccc(C)c(Nc4nccc(-c5cnccn5)n4)c3)cc(C(F)(F)F)c2)cn1 [Radotinib]	0	0	0
Cn1c(Nc2ccc(C(F)(F)F)cc2)nc2cc(Oc3ccnc(-c4ncc(C(F)(F)F)[nH]4)c3)ccc21 [NVP-RAF265]	0	0	0
O=C(NOCCO)c1ccc2cncn2c1Nc1ccc(I)cc1F [GDC-0623]	1.4	0.3	0
C=C1C[C@@H]2CC[C@@]34C[C@H]5O[C@H]6[C@@H](O3)[C@H]3O[C@H](CC[C@@H]3O[C@H]6[C@H]5O4)CC(=O)C[C@@H]3[C@@H](OC)[C@@H](C[C@H](O)CN)O[C@H]3C[C@H]3O[C@@H](CC[C@@H]1O2)C[C@@H](C)C3=C [Eribulin]	17.3	23.4	22.5
C[C@H]1C[C@@H]2[C@H]([C@@H](O)C[C@@]3(C)[C@H]2CC[C@]3(O)C(=O)CO)[C@@]2(C)C=CC(=O)C=C12 [Methylprednisolone]	0	0	0
C[C@H]1CNCCCN1S(=O)(=O)c1cccc2cncc(F)c12 [Ripasudil]	0	0	0
Nc1nc(OCc2cc(Br)cs2)c2[nH]cnc2n1 [Lomeguatrib]	0	0	0
Cc1sc2c(c1C)C(c1ccc(Cl)cc1)=N[C@@H](CC(=O)Nc1ccc(O)cc1)c1nnc(C)n1-2 [Birabresib]	5.8	16.6	10.7
Cc1c2oc3c(C)ccc(C(=O)N[C@@H]4C(=O)N[C@H](C(C)C)C(=O)N5CCC[C@H]5C(=O)N(C)CC(=O)N(C)[C@@H](C(C)C)C(=O)O[C@@H]4C)c3nc-2c(C(=O)N[C@@H]2C(=O)N[C@H](C(C)C)C(=O)N3CCC[C@H]3C(=O)N(C)CC(=O)N(C)[C@@H](C(C)C)C(=O)O[C@@H]2C)c(N)c1=O [Dactinomycin]	25.2	32.9	27.6
Cc1cccc(CC(=O)N2CCc3c2ccc(-c2cn(C)c4ncnc(N)c24)c3F)n1	0	0	0
Cc1ccc(Nc2nccc(N(C)c3ccc4c(C)n(C)nc4c3)n2)cc1S(N)(=O)=O [Pazopanib]	0	0	0
CCN(CC)CCCC(C)Nc1c2ccc(Cl)cc2nc2ccc(OC)cc12 (centres undefined) [Mepacrine]	10.5	15.2	16.2
CC#CC(=O)N1CCC[C@H]1c1nc(-c2ccc(C(=O)Nc3ccccn3)cc2)c2c(N)nccn12 [Acalabrutinib]	0	0	0
N#CCNC(=O)c1ccc(-c2ccnc(Nc3ccc(N4CCOCC4)cc3)n2)cc1 [Momelotinib]	3.7	3.3	2.7
O=C(Nc1cc(Oc2cc(F)c(NC(=O)C3(C(=O)Nc4ccc(F)cc4)CC3)cc2F)ccn1)C1CC1 [Altiratinib]	0	8	0
C[C@@H](Oc1cc(-c2cnn(C3CCNCC3)c2)cnc1N)c1c(Cl)ccc(F)c1Cl [Crizotinib]	0	0	0

SMILES	drug sensitivity score [1]	drug sensitivity score [2]	drug sensitivity score [3]
CC(=O)O[C@H]1C(=O)[C@@]2(C)[C@H]([C@H](OC(=O)c3ccccc3)[C@]3(O)C[C@H](OC(=O)[C@H](O)[C@@H](NC(=O)c4ccccc4)c4ccccc4)C(C)=C1C3(C)C)[C@]1(OC(C)=O)CO[C@@H]1C[C@@H]2O [Paclitaxel]	15.8	21.8	19.4
CCN1CCN(c2ccc(Nc3cc(N(C)C(=O)Nc4c(Cl)c(OC)cc(OC)c4Cl)ncn3)cc2)CC1 [Infigratinib]	0	0	0
NC(=O)N1CCC(CC(=O)N2CCC([C@H]3c4ncc(Br)cc4CCc4cc(Cl)cc(Br)c43)CC2)CC1 [Lonafarnib]	8.6	14.6	9.9
CC(C)[C@@H](CS(=O)(=O)C(C)C)N1C(=O)[C@@](C)(CC(=O)O)C[C@H](c2cccc(Cl)c2)[C@H]1c1ccc(Cl)cc1 [AMG-232]	5.9	9.8	7.2
Clc1ccc(C(c2ccccc2Cl)C(Cl)Cl)cc1 (centres undefined) [Mitotane]	0	0	0
CC(=O)[C@]1(O)Cc2c(O)c3c(c(O)c2[C@@H](O[C@H]2C[C@H](N)[C@H](O)[C@H](C)O2)C1)C(=O)c1ccccc1C3=O [Idarubicin]	16.6	19	13.9
N.N.[Cl][Pt][Cl] [Cisplatin]	5.7	13.5	12.2
O=c1[nH]cc(F)c(=O)[nH]1 [Fluorouracil]	8.6	9.2	9.7
C=C1C[C@@H]2[C@H](CC[C@]3(C)C(=O)CC[C@@H]23)[C@@]2(C)C=CC(=O)C=C12 [Exemestane]	0	0	0
CN(C)C(=O)c1cc2cnc(Nc3ccc(N4CCNCC4)cn3)nc2n1C1CCCC1 [Ribociclib]	0	1.6	0.8
CCC1(c2ccc(N)cc2)CCC(=O)NC1=O (centres undefined) [Aminoglutethimide]	0	0	0
CC1(C)OCCn2c1nc1c(N3CCOCC3)nc(-c3cnc(N)nc3)nc12 [GDC-0084]	7	14.9	10.2
Nc1ccn([C@@H]2O[C@H](CO)[C@@H](O)[C@@H]2O)c(=O)n1 [Cytarabine]	1.8	4	2.3
CC(C)NC(=O)COc1cccc(-c2nc(Nc3ccc4[nH]ncc4c3)c3ccccc3n2)c1 [KD025]	0.8	0	0
C#Cc1cccc(Nc2ncnc3cc4c(cc23)OCCOCCOCCO4)c1 [Icotinib]	0	7.8	2.4
CN[C@@H]1C[C@H]2O[C@@](C)([C@@H]1OC)n1c3ccccc3c3c4c(c5c6ccccc6n2c5c31)C(=O)N[C@H]4O [UCN-01]	18.1	14.5	18.5
